Source: patent US8809341B2, “2,4-pyrimidinediamine compounds and uses as anti-proliferative agents” (Rigel Pharmaceuticals, Inc., priority 2003, dated 2014)

Legend:
A549 cells = experiment: in vitro antiproliferation assay, A549 (lung); assay type: cell-based; settings: in vitro antiproliferation, A549 (lung) cells
Procedure: (§1) The IC50 values of various compounds against a various different tumor cell lines were determined using standard in vitro antiproliferation assays. The tumor cell lines tested were as follows: A549 (lung); H1299 (lung), ACHN (kidney/p53 wt), CAKI (renal cell carcinoma), NCI-H460 (lung); HCT116 (colon/p53w0; HELA (cervix/p53 wt), HUH7 (liver/p53 wt), HUVEC (primary endothelial), LNCAP (prostate), HT-29 (colon); MCF-7 (breast); MCF-7 (breast/ER positive), MDA MB435S (breast); MDA MB231 (breast/ER negative), DU145 (prostate); BxPC-3 (pancreatic); SKOV-3 (ovarian); HepG2 (hepatic), NDHF primary normal human dermal fibroblast), SKMEL28 (breast/p53mut), SKMEL5 (breast/p53 wt), U20S (bone) and PC3 (prostate). […] A blank indicates the specified compound was not tested against the specified cell line.

H1299 cells = experiment: in vitro antiproliferation assay, H1299 (lung); assay type: cell-based; settings: in vitro antiproliferation, H1299 (lung) cells
Procedure: as §1

[1] = Table 4, compounds with no designated stereochemistry tested as racemate

COc1cc(Nc2ncc(F)c(Nc3ccc4c(c3)NC(=O)C(C)(C)S4(=O)=O)n2)cc(OC)c1OC [compound 265]
IC50 (A549 cells; [1]): ≤ 20 µM
IC50 (H1299 cells; [1]): ≤ 20 µM

COc1ccc(Nc2ncc(F)c(Nc3ccc4c(c3)NC(=O)C(C)(C)S4(=O)=O)n2)cc1F [compound 287]
IC50 (A549 cells; [1]): ≤ 20 µM
IC50 (H1299 cells; [1]): ≤ 20 µM

COc1ccc(Nc2ncc(F)c(Nc3ccc4c(c3)NC(=O)C(C)(C)S4)n2)cc1F [compound 289]
IC50 (A549 cells; [1]): ≤ 20 µM
IC50 (H1299 cells; [1]): ≤ 20 µM

COc1ccc(Nc2ncc(F)c(Nc3ccc4c(c3)NC(=O)CS4)n2)cc1F [compound 290]
IC50 (A549 cells; [1]): ≤ 20 µM
IC50 (H1299 cells; [1]): ≤ 20 µM

CNC(=O)COc1cccc(Nc2ncc(F)c(Nc3ccc4c(c3)N(C)C(=O)CO4)n2)c1 [compound 299]
IC50 (A549 cells; [1]): ≤ 20 µM
IC50 (H1299 cells; [1]): > 20 µM

CC1(C)Oc2ccc(Nc3nc(Nc4cc(CO)cc(CO)c4)ncc3F)cc2NC1=O [compound 320]
IC50 (A549 cells; [1]): ≤ 20 µM
IC50 (H1299 cells; [1]): ≤ 20 µM

COc1cc(Cl)cc(Nc2ncc(F)c(Nc3ccc4c(c3)NC(=O)C(C)(C)O4)n2)c1 [compound 321]
IC50 (A549 cells; [1]): ≤ 20 µM
IC50 (H1299 cells; [1]): ≤ 20 µM

COc1cc(Nc2ncc(F)c(N(C)c3ccc4c(c3)NC(=O)C(C)(C)O4)n2)cc(OC)c1 [compound 323]
IC50 (A549 cells; [1]): ≤ 20 µM
IC50 (H1299 cells; [1]): ≤ 20 µM

Cc1cc(C)cc(Nc2ncc(F)c(N(C)c3ccc4c(c3)N(C)C(=O)C(C)(C)O4)n2)c1 [compound 324]
IC50 (A549 cells; [1]): ≤ 20 µM
IC50 (H1299 cells; [1]): > 20 µM

COc1ccc(Nc2ncc(F)c(N(C)c3ccc4c(c3)N(C)C(=O)C(C)(C)O4)n2)cc1Cl [compound 325]
IC50 (A549 cells; [1]): ≤ 20 µM
IC50 (H1299 cells; [1]): ≤ 20 µM

COc1cc(Nc2ncc(F)c(N(C)c3ccc4c(c3)N(C)C(=O)C(C)(C)O4)n2)cc(OC)c1 [compound 326]
IC50 (A549 cells; [1]): ≤ 20 µM
IC50 (H1299 cells; [1]): ≤ 20 µM

COc1ccc(Nc2ncc(F)c(N(C)c3ccc4c(c3)NC(=O)C(C)(C)O4)n2)cc1Cl [compound 327]
IC50 (A549 cells; [1]): ≤ 20 µM
IC50 (H1299 cells; [1]): ≤ 20 µM

CCOC(=O)COc1cccc(Nc2ncc(F)c(Nc3ccc4c(c3)OCCO4)n2)c1 [compound 491]
IC50 (A549 cells; Table 5): > 20 µM
IC50 (H1299 cells; Table 5): ≤ 20 µM

Fc1cnc(Nc2cccc(Cl)c2)nc1Nc1ccc2c(c1)OC(F)(F)O2 [compound 513]
IC50 (A549 cells; Table 5): ≤ 20 µM
IC50 (H1299 cells; Table 5): ≤ 20 µM

Fc1cnc(Nc2cccc(-c3ncco3)c2)nc1Nc1ccc2c(c1)OCCO2 [compound 515]
IC50 (A549 cells; Table 5): ≤ 20 µM
IC50 (H1299 cells; Table 5): ≤ 20 µM

Cc1cc(O)cc(Nc2ncc(F)c(Nc3ccc4c(c3)OCCO4)n2)c1 [compound 521]
IC50 (A549 cells; Table 5): ≤ 20 µM
IC50 (H1299 cells; Table 5): > 20 µM

Fc1cc(Nc2ncc(F)c(Nc3ccc4c(c3)OCCO4)n2)cc(C(F)(F)F)c1 [compound 522]
IC50 (A549 cells; Table 5): > 20 µM
IC50 (H1299 cells; Table 5): > 20 µM

Fc1cc(F)cc(Nc2ncc(F)c(Nc3ccc4c(c3)OCCO4)n2)c1 [compound 524]
IC50 (A549 cells; Table 5): > 20 µM
IC50 (H1299 cells; Table 5): > 20 µM

Fc1cnc(Nc2ccc(OC(F)F)c(Cl)c2)nc1Nc1ccc2c(c1)OCCO2 [compound 526]
IC50 (A549 cells; Table 5): ≤ 20 µM
IC50 (H1299 cells; Table 5): > 20 µM

Fc1cnc(Nc2cc(Cl)cc(Cl)c2)nc1Nc1ccc2c(c1)OCCO2 [compound 530]
IC50 (A549 cells; Table 5): ≤ 20 µM
IC50 (H1299 cells; Table 5): ≤ 20 µM

COc1cc(Nc2ncc(F)c(Nc3ccc4c(c3)OCCO4)n2)cc(C(F)(F)F)c1 [compound 531]
IC50 (A549 cells; Table 5): > 20 µM
IC50 (H1299 cells; Table 5): ≤ 20 µM

COc1cc(Nc2ncc(F)c(Nc3ccc4c(c3)OC(F)(F)C(F)(F)O4)n2)cc(OC)c1 [compound 532]
IC50 (A549 cells; Table 5): ≤ 20 µM
IC50 (H1299 cells; Table 5): ≤ 20 µM

Cc1cc(Nc2ncc(F)c(Nc3ccc4c(c3)OC(F)(F)C(F)(F)O4)n2)cc(C)c1Cl [compound 533]
IC50 (A549 cells; Table 5): > 20 µM
IC50 (H1299 cells; Table 5): ≤ 20 µM

Fc1cnc(Nc2cc(Cl)cc(Cl)c2)nc1Nc1ccc2c(c1)OC(F)(F)C(F)(F)O2 [compound 535]
IC50 (A549 cells; Table 5): ≤ 20 µM
IC50 (H1299 cells; Table 5): ≤ 20 µM

COc1cc(Nc2ncc(F)c(Nc3ccc4c(c3)OC(F)(F)C(F)(F)O4)n2)cc(C(F)(F)F)c1 [compound 536]
IC50 (A549 cells; Table 5): ≤ 20 µM
IC50 (H1299 cells; Table 5): ≤ 20 µM

Cc1cc(C)cc(Nc2ncc(F)c(Nc3ccc4c(c3)OC(F)(F)C(F)(F)O4)n2)c1 [compound 537]
IC50 (A549 cells; Table 5): ≤ 20 µM
IC50 (H1299 cells; Table 5): ≤ 20 µM

Cc1cc(Nc2ncc(F)c(Nc3ccc4c(c3)OC(F)(F)C(F)(F)O4)n2)cc(C(F)(F)F)c1 [compound 538]
IC50 (A549 cells; Table 5): ≤ 20 µM
IC50 (H1299 cells; Table 5): > 20 µM

COc1cc(Cl)cc(Nc2ncc(F)c(Nc3ccc4c(c3)OCCO4)n2)c1 [compound 539]
IC50 (A549 cells; Table 5): ≤ 20 µM
IC50 (H1299 cells; Table 5): ≤ 20 µM

COc1cc(Nc2ncc(F)c(Nc3ccc4c(c3)OCO4)n2)cc(C(F)(F)F)c1 [compound 541]
IC50 (A549 cells; Table 5): ≤ 20 µM
IC50 (H1299 cells; Table 5): ≤ 20 µM

Cc1cc(Nc2ncc(F)c(Nc3ccc4c(c3)OCO4)n2)cc(C(F)(F)F)c1 [compound 542]
IC50 (A549 cells; Table 5): > 20 µM
IC50 (H1299 cells; Table 5): > 20 µM

Fc1cnc(Nc2cc(Cl)cc(Cl)c2)nc1Nc1ccc2c(c1)OCO2 [compound 543]
IC50 (A549 cells; Table 5): ≤ 20 µM
IC50 (H1299 cells; Table 5): ≤ 20 µM
